Literature values in patent US20110287097A1, “PHARMACEUTICAL COMPOSITIONS COMPRISING ROPINIROLE” (DR. REDDY'S LABORATORIES, INC., priority 2007, published 2011).

CCCN(CCC)CCc1cccc2c1CC(=O)N2 [Ropinirole, 4-[2-(dipropylamino)ethyl]-1,3-dihydro-2H-indol-2-one]
time to peak plasma concentration (after administration of an immediate release tablet): 1 to 2 h | absolute systemic bioavailability (in vivo): 55% | mean plasma elimination half-life (in vivo): approximately 6 hours
